Broadly, the IC50 is the concentration needed to halve the response being measured.

These results are taken from PMC2837273 (Drug metabolism and disposition: the biological fate of …, 2008).

Each structure is given as a SMILES string. “Also recorded” adds a separate entry of the source. Read-outs that look alike come from different tables or passages of the source.

The subject of series [1] is Abcg2. Kind of series: GF120918 "chemical knockout" of nitrofurantoin transfer into rat milk. It counts as in vivo, Sprague Dawley rat. Particulars: GF120918 10 mg/kg treated group vs control; lactating rats.
A further series deals with human ABCG2. Particulars: read-out: IC50 on efflux or accumulation; cell lines transfected with human ABCG2; ref Ahmed-Belkacem et al., 2005; Pan et al., 2007; cited from earlier work.
Series [2] addresses T1, rat Abcg2 (Rattus norvegicus, UniProt Q80W57).
T1 sequence (Q80W57 1-657): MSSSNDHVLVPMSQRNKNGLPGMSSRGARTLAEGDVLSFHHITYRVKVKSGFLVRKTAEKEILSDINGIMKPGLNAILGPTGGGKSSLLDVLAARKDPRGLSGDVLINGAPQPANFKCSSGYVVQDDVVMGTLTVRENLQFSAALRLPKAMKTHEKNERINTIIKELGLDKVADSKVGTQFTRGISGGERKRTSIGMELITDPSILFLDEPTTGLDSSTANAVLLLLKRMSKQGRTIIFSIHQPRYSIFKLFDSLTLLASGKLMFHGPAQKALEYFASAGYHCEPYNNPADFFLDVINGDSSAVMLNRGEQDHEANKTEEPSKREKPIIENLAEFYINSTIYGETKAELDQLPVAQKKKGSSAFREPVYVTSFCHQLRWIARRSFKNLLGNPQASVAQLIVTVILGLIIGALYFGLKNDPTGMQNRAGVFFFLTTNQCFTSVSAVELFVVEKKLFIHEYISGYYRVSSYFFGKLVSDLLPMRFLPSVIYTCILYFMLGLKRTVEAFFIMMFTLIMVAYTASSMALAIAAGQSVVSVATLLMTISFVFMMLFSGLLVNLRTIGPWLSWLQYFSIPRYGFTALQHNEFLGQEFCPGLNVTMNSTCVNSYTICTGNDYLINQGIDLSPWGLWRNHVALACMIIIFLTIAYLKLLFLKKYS
Kind of series: Hoechst 33342 accumulation in MDCKII-rAbcg2 cells. It counts as cell-based. Particulars: 1 μM GF120918, 10μM Hoechst 33342.

In series [3] the target is T1, rat Abcg2. It counts as cell-based.
For series [4], the system named is Abcg2. The note with it: wild-type and P-gp deficient mice; ref Cisternino et al., 2004; cited from earlier work.
For the next series, the system named is human BCRP. The note with it: polarized cell lines; ref Merino et al., 2005; cited from earlier work.
The test system of the next series is Bcrp1. Particulars: ref Merino et al., 2005, cited from earlier work.
Another series has as its system murine Bcrp1. Particulars: polarized cell lines; ref Merino et al., 2005; cited from earlier work.
The mark [5] stands for this setting: MDCKII-rat Abcg2 vs MDCKII-empty cells, 10μM nitrofurantoin.

With `COc1cc2c(cc1OC)CN(CCc1ccc(NC(=O)c3cccc4c(=O)c5cccc(OC)c5[nH]c34)cc1)CC2` [GF120918, N-(4-[2-(1,2,3,4-tetrahydro-6,7-dimethoxy-2-isoquinolinyl)ethyl]-phenyl)-9,10-dihydro-5-methoxy-9-oxo-4-acridine carboxamide], in the series with Abcg2 [1], the “reduction in the M/S of nitrofurantoin” value is 93%. In addition, the IC50 with human ABCG2 is around 300 nM. Besides, the “effect on Hoechst 33342 efflux phenotype (reduced accumulation)” value at rat Abcg2 [2] is reported as “reversed; also recorded: effectively inhibit”. For the same compound, the “effect on nitrofurantoin transport/efflux by rat Abcg2” value at rat Abcg2 [3] (1 μM GF120918, MDCKII-rAbcg2 cells) is “largely reversed; also recorded: effectively inhibit”.

For `O=C1c2c(O)ccc(O)c2C(=O)c2c(NCCNCCO)ccc(NCCNCCO)c21` [mitoxantrone], the “accumulation in the presence of GF120918” value with Abcg2 [4] was “significantly increased”.

In the case of `O=C1CN(/N=C/c2ccc([N+](=O)[O-])o2)C(=O)N1` [nitrofurantoin, Nitrofurantoin], the “transport by human BCRP” value with human BCRP is “efficiently transported”. For the same compound, the “area under the concentration time curve, Bcrp1 knockout vs wild-type mice” value in the series on Bcrp1 (intravenous administration) was 2 fold; in the series on Bcrp1 (oral administration), 4 fold. The “decrease in basolateral transport” value at rat Abcg2 [3] (setting [5]) is given as 55%. In addition, the “increase in apical directed transport” value at rat Abcg2 [3] (setting [5]) turned out to be 7.5 fold. The “transport by murine Bcrp1” value in the series with murine Bcrp1 is listed as “efficiently transported”.
